Source: patent US11110158B2, “Prostate-associated antigens and vaccine-based immunotherapy regimens” (Pfizer Inc., priority 2012, dated 2021)

Test system: human PSMA
Experiment: IFNγ ELISPOT of splenocytes, PSMA DNA constructs by PMED in Pasteur (HLA A2/DR1) mice
Type: in vivo, mouse
Settings: positive SFC>50
Text: Two human HLA transgenic mouse models were used to evaluate the presentation of various PSMA antigens by different HLAs and a human PSMA transgenic mouse model was used to assess the breaking of immune tolerance to human PSMA. The first HLA transgenic mouse model utilizes the HLA A2/DR1 mice (from the Pasteur Institute, Paris, France; also referred to as “Pasteur mice”). […] The second HLA transgenic mouse model uses mice that are knock in with human HLA A24 that is covalently linked to the human β-2-microglobulin at the H2bk locus. […] This model allows evaluation of antigen presentation in the context of human HLA A24.
Eight-to-10 week-old transgenic mice were immunized using PMED method with various PSMA DNA constructs in a prime/boost/boost regimen, two weeks apart between each vaccination. Alternatively, mice were primed with adenovirus vectors encoding the PSMA antigen at 1×10^9 viral particles in 50 μl (PBS) by intramuscular injection. The adenovirus vector (pShuttle-CMV vector from Stratagene) was modified to contain NheI and BgIII restriction sites within the multiple cloning site. The DNA encoding human PSMA modified was then restriction digested with NheI and BgIII, ligated into this vector and sequence confirmed. The pShuttle human PSMA modified vector was then recombined with the pAdEasy-1 vector and virus was propagated according to the AdEasy system (Stratagene). Twenty-days later, they were boosted with PMED as described above. In each of the regimens used, antigen specific T cell response was measured 7 days after the last immunization in an interferon-gamma (IFNγ) ELISPOT assay. The ELISPOT assay is similar to the sandwich enzyme-linked immunosorbent assay (ELISA). Briefly, a capture antibody specific to IFNγ BD Bioscience, #51-2525kc) is coated onto a polyvinylidene fluoride (PVDF) membrane in a microplate overnight at 4° C. The plate is blocked with serum/protein to prevent nonspecific binding to the antibody. After blocking, effector cells (such as splenocytes isolated from PSMA immunized mice) and targets (such as PSMA peptides from peptide library, target cells pulsed with peptides or tumor cells expressing the relevant antigens) or mitogen (which will stimulate splenocytes non-specifically to produce IFNγ[…] are added to the wells and incubated overnight at 37° C. in a 5% CO2 incubator. Cytokine secreted by effector cells are captured by the coating antibody on the surface of the PVDF membrane. After removing the cells and culture media, 100 μl of a biotinylated polyclonal anti-mouse IFNγ antibody (0.5 mg/ml-BD Bioscience, #51-1818 kz) was added to each of the wells for detection. The spots are visualized by adding streptavidin-horseradish peroxidase (HRP, BD Bioscience, #557630) and the precipitate substrate, 3-amino-9-ethylcarbazole (AEC), to yield a red color spot. Each spot represents a single cytokine producing T cell. In general, in the studies disclosed here the ELISpot assay was set up as follows: 5×10^5 splenocytes from PSMA immunized mice were cultured (1) in the presence of PSMA specific peptides derived from a PSMA peptide library (see Table 16) made of 15-amino acid peptides overlapping by 11 amino acids, (2) with known HLA A2.1 restricted PSMA specific peptides, or (3) with tumor cells. To measure the recognition of endogenous antigen presentation, splenocytes were cultured with a human HLA A2 prostate cancer cells (i.e. LNCaP, available from ATCC) that naturally express PSMA or cultured with HLA A2 tumor cells transduced with adenovirus encoding and thus expressing the human PSMA modified antigen. In addition, human PSMA ECD protein was added to the ELISpot assay to measure specifically CD4 IFNγ[…] producing cells. For controls where appropriate, HLA A2 restricted HER-2 specific peptide p168-175 or tumor cells not expressing PSMA or irrelevant protein such as BSA were used as a negative control in the IFNγ […]ELISpot assay. […]

For “PSMA modified: membrane-bound polypeptide of amino acids 15-750 of human PSMA, SEQ ID NO: 9; tested as DNA construct”, the “IFN-γ SFC/1 × 10^6 splenocytes” value (Table 2, HLA A2.1 restricted peptide PSMA p275, ( ) = standard deviation) was 304 (21) SFC/1 × 10^6 splenocytes, the “IFN-γ SFC/1 × 10^6 splenocytes” value (Table 2, HLA A2.1 restricted peptide PSMA p627, ( ) = standard deviation) was 222 (14) SFC/1 × 10^6 splenocytes and the “IFN-γ SFC/1 × 10^6 splenocytes” value (Table 2, HLA A2.1 restricted peptide PSMA p662, ( ) = standard deviation) was 925.1 (77) SFC/1 × 10^6 splenocytes. For the same substance, the “IFN-γ SFC/1 × 10^6 splenocytes” value (Table 2, HLA A2.1 restricted peptide PSMA p663, ( ) = standard deviation) was 1524.9 (45) SFC/1 × 10^6 splenocytes, the “IFN-γ SFC/1 × 10^6 splenocytes” value (Table 2, PC3 tumor cells (no PSMA, negative control), ( ) = standard deviation) was 1 (1) SFC/1 × 10^6 splenocytes and the “IFN-γ SFC/1 × 10^6 splenocytes” value (Table 2, PSMA ECD protein, ( ) = standard deviation) was 731 (16) SFC/1 × 10^6 splenocytes. For the same substance, the “IFN-γ SFC/1 × 10^6 splenocytes” value (Table 2, PSMA+ HLA A2.1 LNCaP tumor cells, ( ) = standard deviation) was 96 (12) SFC/1 × 10^6 splenocytes and the “IFN-γ SFC/1 × 10^6 splenocytes” value (Table 2, target peptide PSA p64, ( ) = standard deviation) was 2 (4) SFC/1 × 10^6 splenocytes.
